Experimental data from US20260337162A1, “TRYPTAMINE COMPOUNDS, COMPOSITIONS, AND METHODS OF USE” (priority 2022, published 2026).
Entries after “also recorded” stand apart in the source; their conditions may differ. Read-outs that look alike come from different tables or passages of the source.

What was measured:
[1] = molecular target: T1, human serotonin 5-HT2A receptor (Homo sapiens, UniProt P28223); experiment: Radioligand ([3H]LSD) competition binding, 5-HT2A receptor; settings: for competition for [3H]LSD-labeled 5-HT2A receptors / competition binding curve shape: in words; for competition for [3H]LSD-labeled 5-HT2A receptors: up to 10 μM for partial competition; for 5-HT2A receptor affinity (in words) / competition binding curve shape / Ki: [3H]LSD; for Ki: one-site fit Ki model
T1 construct: host or cells: HEK293 (ATCC CRL-1573)
Method: Binding affinity (Ki) and functional potency and efficacy (EC50 and EMAX) values of the compounds were measured.
Radioligand competition binding was performed as previously described (Saraf, T. S., Felsing, D. E., Armstrong, J. L., Booth, R. G., and Canal, C. E., 2021, Evaluation of lorcaserin as an anticonvulsant in juvenile Fmr1 knockout mice, Epilepsy Res 175, 106677), with minor modifications, using human cloned 5-HT2A receptors. Plasmids encoding human serotonin 5-HT2A receptor cDNA were procured from the cDNA Resource Center. Human embryonic kidney cells (HEK293, ATCC CRL-1573) were grown in a cell incubator in 100 mm dishes with antibiotic-free Dulbecco's modified Eagle's medium containing 10% fetal bovine serum. Cells were transfected at ~85% confluency with 5-15 μg cDNA using TransIT-2020 reagent (Mirus Bio, Madison, Wisconsin). After approximately 48 hours, cell membrane was collected via centrifugation. For all experiments, serotonin (5-HT) hydrochloride was used as a positive control, and mianserin hydrochloride (10 μM) was used to define non-specific binding. Each cell membrane homogenate expressing 5-HT2A receptors was incubated at room temperature in 96-well plates with [^3H] […] Following equilibration, each sample was filtered rapidly under vacuum through fiberglass filters presoaked in a buffer and washed by vacuum several times with an ice-cold buffer. Filters were soaked with scintillation fluid and counts per minute were detected using photodetectors (Microbeta Scintillation Counter). […] Data shown are the results from all experiments combined. As is known, G protein-coupled receptors, including the 5-HT2A receptor, can exist in multiple conformations, and ligands, typically agonist ligands, have unique affinities for these conformations of the receptor (Kenakin, T. Theoretical Aspects of GPCR-Ligand Complex Pharmacology, Chem. Rev. 2017, 117, 1, 4-20). […] However, for simplicity reasons, affinity of these compounds are reported herein as fitted to the single-site model. The data point for −10 samples is total specific binding (no compound present), and −4 was interpolated to complete the binding curves to 0 specific binding.

[2] = cited from earlier work
5-HT2A receptor [3] = molecular target: T2, 5-HT2A receptor (Homo sapiens, UniProt P28223); experiment: 5-HT2A receptor functional screening assay (efficacy relative to maximal 5-HT response); type: cell-based; settings: for activation at 0.5 µM: 500 nM
T2 construct: expressed in transfected cells
Method: (§1) 5-HT2 receptor-mediated Gq stimulation [phosphoinositide hydrolysis leading to the production of inositol phosphate 1 (IP1)]-canonical signaling pathways-were measured as previously described (Canal, C. E., Cordova-Sintjago, T., Liu, Y., Kim, M. S., Morgan, D., and Booth, R. G., 2013, Molecular pharmacology and ligand docking studies reveal a single amino acid difference between mouse and human serotonin 5-HT2A receptors that impacts behavioral translation of novel 4-phenyl-2-dimethylaminotetralin ligands, J Pharmacol Exp Ther 347, 705-716; Canal, C. E., Morgan, D., Felsing, D., Kondabolu, K., Rowland, N. E., Robertson, K. L., Sakhuja, R., and Booth, R. G., 2014, A Novel Aminotetralin-Type Serotonin (5-HT)(2C) Receptor —Specific Agonist and 5-HT2A Competitive Antagonist/5-HT2B Inverse Agonist with Preclinical Efficacy for Psychoses, J Pharm Exp Ther 349, 533), for example, with a homogeneous time-resolved fluorescence (HTRF) capable microplate reader (e.g., Mithras LB 940, Berthold) using commercially-available kits employing Fluorescence Resonance Energy Transfer (FRET) technology (e.g., IP-One HTRF (Cisbio) kits). Briefly, CHO-K1 or HEK293 cells expressing a single serotonergic 5-HT2 receptor subtype were incubated with test compounds and 5-HT or DOI (positive control) in stimulation buffer containing LiCl. After equilibration, the reaction was terminated with the donor and acceptor fluorescent conjugates in lysis buffer, and FRET was measured with a microplate reader (Berthold Mithras). Data were fit to non-linear curves to calculate potencies (e.g., EC50) and efficacies (e.g., EMAX), relative to positive controls (e.g., serotonin).

in vivo = type: in vivo, adult, male C57BL/6J mice; settings: 10 mg/kg PO; for concentration at 10 min / concentration at 0.5 h / concentration at 2 h: mouse, in vivo, po, 10 mg/kg; for concentration at 0.5 h: 30 min; for concentration at 2 h: 120 min
Method: PK profiles were established in adult, male C57BL/6J (Jackson Laboratories). Mice were housed in standard laboratory cages with ad libitum access to food and water, and were acclimated to the vivarium for at least one week prior to testing in a procedure room. In a typical experiment, mice were administered 10 mg/kg of test compound by oral gavage and plasma and brain samples were collected at 10, 30, and 120 min with n-3 for each time point. Quantification of the parent molecule was done using LC-MS/MS method (LLOQ, 0.9 nM).

5-HT2A receptor [4] = experiment: Head-twitch response (HTR) and behavioral observation in mice; type: in vivo, adult, male C57BL/6J mice; settings: 10 mg/kg PO; for HTR (per min): 30 min counting; for elicitation of HTR (in words) / qualitative behavioral changes: mice
Method: The HTR assay was performed in adult, male C57BL/6J mice, procured from the Jackson Laboratory (Bar Harbor, Maine), as previously described (Canal, C. E., and Morgan, D., 2012, Head-twitch response in rodents induced by the hallucinogen 2,5-dimethoxy-4-iodoamphetamine: a comprehensive history, a re-evaluation of mechanisms, and its utility as a model, Drug Test Anal 4, 556-576; Saraf, T. S., Felsing, D. E., Armstrong, J. L., Booth, R. G., and Canal, C. E., 2021, Evaluation of lorcaserin as an anticonvulsant in juvenile Fmr1 knockout mice, Epilepsy Res 175, 106677). Mice were housed in standard laboratory cages with ad libitum access to food and water, and were acclimated to the vivarium for at least one week prior to testing in a procedure room. On the day of testing, mice were acclimated to the procedure room in their home cages for ≥60 min before administration of test compounds. Test articles were administered at 10 mg/kg by oral gavage and mice were placed immediately thereafter in a clear, polycarbonate box (46×20×20 cm), and HTRs were counted for 30 consecutive minutes, using hand-held tally counters, by two trained observers who were blind to treatment.

5-HT2A receptor [5] = molecular target: T2, 5-HT2A receptor; experiment: Dose-response 5-HT2A functional assay (IP1 formation); type: cell-based
Method: (§2) FIG. 27 is a graph showing the dose-response 5-HT2A functional assay results as a percent of control agonist response for compound II-2; tested in duplicate at the indicated concentrations and the EC50 values were determined by non-linear regression analysis of the concentration-response curves generated with mean replicate values using Hill equation curve fitting;
as §2, with “28” for “27”, “compounds III-2 and IV-21;” for “compound II-2;”, “fitting; and” for “fitting;”
as §1
The results from tests of 5-HT2A functional activities of this series of compounds were also unexpected in the context of the unusual results observed from competition binding assays. […] Complete dose-response 5-HT2A and 5HT2B functional assays (measuring IP1 formation) were conducted for III-2 and IV-21 by a second, independent laboratory.

[6] = brain, read-out: PK data, Brain, 10 min
[7] = brain, read-out: PK data, Brain, 30 min
[8] = brain, read-out: PK data, Brain, 120 min
[9] = plasma, read-out: PK data, Plasma, 10 min
[10] = plasma, read-out: PK data, Plasma, 30 min
[11] = plasma, read-out: PK data, Plasma, 120 min

T2 sequence (P28223 whole entry): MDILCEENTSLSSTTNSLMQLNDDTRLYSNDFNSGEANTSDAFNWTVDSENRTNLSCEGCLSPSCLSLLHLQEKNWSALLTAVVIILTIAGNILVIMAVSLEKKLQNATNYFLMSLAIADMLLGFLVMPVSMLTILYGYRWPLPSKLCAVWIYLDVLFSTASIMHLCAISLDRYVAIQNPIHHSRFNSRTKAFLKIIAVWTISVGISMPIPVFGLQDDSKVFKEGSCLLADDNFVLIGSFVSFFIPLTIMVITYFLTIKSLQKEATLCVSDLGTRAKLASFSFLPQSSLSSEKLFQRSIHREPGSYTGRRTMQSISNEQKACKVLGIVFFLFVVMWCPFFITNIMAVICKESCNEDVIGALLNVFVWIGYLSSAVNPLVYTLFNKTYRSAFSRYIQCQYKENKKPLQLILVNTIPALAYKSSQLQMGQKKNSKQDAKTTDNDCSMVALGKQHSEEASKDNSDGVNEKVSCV
T1 sequence (P28223 whole entry): as above

FC(F)(F)CN(CCc1c[nH]c2ccccc12)CC(F)(F)F [II-10, N-(2-(1H-indol-3-yl)ethyl)-2,2,2-trifluoro-N-(2,2,2-trifluoroethyl) ethan-1-amine]
competition for [3H]LSD-labeled 5-HT2A receptors [1]: only partial competition

CN(C)CCc1c[nH]c2cccc(O)c12 [psilocin]
MAO-mediated metabolism ([2]; in vivo): undergo MAO-mediated metabolism in vivo

FC1(F)CCN(CCc2c[nH]c3ccccc23)CC1 [II-21, 3-(2-(4,4-difluoropiperidin-1-yl)ethyl)-1H-indole]
activation at 0.5 µM (5-HT2A receptor [3]): 9.2% | activation at 50 µM (5-HT2A receptor [3]): -25.4%

CN(CCc1c[nH]c2ccccc12)CC(F)F [II-12, N-(2-(1H-indol-3-yl)ethyl)-2,2-difluoro-N-methylethan-1-amine]
activation at 0.5 µM (5-HT2A receptor [3]): 19.9% | activation at 50 µM (5-HT2A receptor [3]): 30.3%

CN(CCc1c[nH]c2ccccc12)CCC(F)(F)F [II-6, N-(2-(1H-indol-3-yl)ethyl)-3,3,3-trifluoro-N-methylpropan-1-amine]
activation at 0.5 µM (5-HT2A receptor [3]): -7.7 ± 11.6% | activation at 50 µM (5-HT2A receptor [3]): -3.1 ± 9.6% | brain penetration (in words) (in vivo; mice): brain-penetrant | concentration at 10 min (in vivo; [6]): 1550 to 12600 nM | concentration at 0.5 h (in vivo; [7]): 720 to 4710 nM | concentration at 2 h (in vivo; [8]): 21 to 1130 nM | concentration at 10 min (in vivo; [9]): 820 to 7760 nM | concentration at 0.5 h (in vivo; [10]): 390 to 3140 nM | concentration at 2 h (in vivo; [11]): 7 to 440 nM | 5-HT2A receptor affinity (in words) [1]: high affinities | competition binding curve shape [1]: multiple slopes | Ki [1]: 12 nM | competition for [3H]LSD-labeled 5-HT2A receptors [1]: complete competition | HTR (per min) (5-HT2A receptor [4]): <1 per min | elicitation of HTR (in words) (5-HT2A receptor [4]): did not elicit a HTR | qualitative behavioral changes (5-HT2A receptor [4]): reduced locomotion and “hiccup” responses

Oc1cccc2[nH]cc(CCN(CCC(F)(F)F)CCC(F)(F)F)c12 [III-3, 3-(2-(bis(3,3,3-trifluoropropyl)amino)ethyl)-1H-indol-4-ol]
activation at 0.5 µM (5-HT2A receptor [3]): 29.2% | activation at 50 µM (5-HT2A receptor [3]): > 50%

CN(CCc1c[nH]c2cccc(O)c12)CC(F)F [III-12, 3-(2-((2,2-difluoroethyl)(methyl)amino)ethyl)-1H-indol-4-ol]
activation at 0.5 µM (5-HT2A receptor [3]): 17.8% | activation at 50 µM (5-HT2A receptor [3]): > 50%

CN(C)CCc1c[nH]c2ccc(SC(F)(F)F)cc12 [Compound I-3, N,N-dimethyl-2-(5-((trifluoromethyl)thio)-1H-indol-3-yl) ethan-1-amine]
activation at 0.5 µM (5-HT2A receptor [3]): -34.2% | activation at 50 µM (5-HT2A receptor [3]): 43.9%

CN(C)CCc1c[nH]c2cccc(OP(=O)(O)O)c12 [Psilocybin, psilocybin]
MAO-mediated metabolism ([2]; in vivo): undergo MAO-mediated metabolism in vivo

FC(F)CCN(CCc1c[nH]c2ccccc12)CCC(F)F [II-2, N-(2-(1H-indol-3-yl)ethyl)-N-(3,3-difluoropropyl)-3,3-difluoropropan-1-amine]
activation at 0.5 µM (5-HT2A receptor [3]): 1.4% | EC50 (5-HT2A receptor [5]; IP1 formation): 596 nM | Emax (5-HT2A receptor [5]; percent of control agonist response): 79%

FC(F)(F)CCN(CCc1c[nH]c2ccccc12)CCC(F)(F)F [II-3, N-(2-(1H-indol-3-yl)ethyl)-3,3,3-trifluoro-N-(3,3,3-trifluoropropyl) propan-1-amine]
activation at 0.5 µM (5-HT2A receptor [3]): -29.7% | activation at 50 µM (5-HT2A receptor [3]): > 50%

CN(C)CCc1c[nH]c2ccccc12 [DMT, N,N-dimethyltryptamine]
oral activity / oral bioavailability ([2]; in vivo, po): not orally active | duration of action ([2]; in vivo): 5 to 15 min

COc1ccc2[nH]cc(CCN(C)C)c2c1 [Compound 5-MeO-DMT, 5-methoxy-N,N-dimethyltryptamine]
duration of action ([2]; in vivo): 5 to 15 min | oral activity / oral bioavailability ([2]; oral): lacks oral bioavailability

CN(CCc1c[nH]c2cccc(O)c12)CCC(F)(F)F [III-6, 3-(2-(methyl (3,3,3-trifluoropropyl)amino)ethyl)-1H-indol-4-ol]
activation at 0.5 µM (5-HT2A receptor [3]): 53.5% | activation at 50 µM (5-HT2A receptor [3]): > 50% | 5-HT2A functional activity (in words) (5-HT2A receptor [3]; in vitro screening, II-15: both 500 nM and 50 μM): agonist activity; also recorded: behaved as an agonist | concentration at 10 min (in vivo; [6]): 200 to 1300 nM | concentration at 0.5 h (in vivo; [7]): 120 to 420 nM | concentration at 2 h (in vivo; [8]): 3 to 20 nM | concentration at 10 min (in vivo; [9]): 170 to 620 nM | concentration at 0.5 h (in vivo; [10]): 72 to 180 nM | concentration at 2 h (in vivo; [11]): 2 to 16 nM | 5-HT2A receptor affinity (in words) [1]: high affinities; also recorded: potent affinity | competition binding curve shape [1]: multiple slopes | Ki [1]: 12 nM | competition for [3H]LSD-labeled 5-HT2A receptors [1]: complete competition | HTR (per min) (5-HT2A receptor [4]): <1 per min | elicitation of HTR (in words) (5-HT2A receptor [4]): did not elicit a HTR; also recorded: did not elicit the 5-HT2A-dependent HTR | qualitative behavioral changes (5-HT2A receptor [4]): reduced locomotion and “hiccup” responses; also recorded: “hiccup” like responses and caused hypolocomotion
